ChEMBL document CHEMBL1201862, “PubChem BioAssay data set” (2004)
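Results reflect a 48-hour exposure of cells in 96-well plates to compound at five concentrations. The concentration for 50% growth inhibition is given as GI50.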 The source made the active and inactive calls. No stated cut-off is given here; in the data, active = GI50 up to about 1.1 µM and inactive = higher.

Assays:
Assay in all cases: NCI anticancer screen, dose series, 48 h
[1] = test system: A498
[2] = test system: A549
[3] = test system: DMS-114
[4] = test system: DMS-273
[5] = test system: EKVX
[6] = test system: HCC 2998
[7] = test system: HOP-18
[8] = test system: IGROV-1
[9] = test system: MCF7
[10] = test system: MOLT-4
[11] = test system: NCI/ADR-RES
[12] = test system: OVCAR-3
[13] = test system: OVCAR-4
[14] = test system: RPMI-8226
[15] = test system: RXF 393
[16] = test system: SK-MEL-28
[17] = test system: SK-MEL-5
[18] = test system: SW-620
[19] = test system: U-251
[20] = test system: M14

Measured: GI50

CCCNC1=C(C)C(=O)C2=C(C1=O)[C@H](COC(N)=O)[C@]1(OC)[C@@H]3N[C@@H]3CN21
active: [2] 0.43 µM | [4] 0.257 µM | [9] 42.2 nM | [10] 1.05 µM | [17] 0.65 µM
inactive: [1] 2.69 µM | [3] 4 µM | [5] 4.3 µM | [6] 3.79 µM | [7] 13.4 µM | [8] 5.04 µM | [11] > 100 µM | [12] 11.6 µM | [13] 6.93 µM | [14] 7.18 µM | [15] 12 µM | [16] 19.8 µM | [18] 3.73 µM | [19] 2.48 µM

COc1ccc2c(c1)c1c(C)c3cnccc3c(C)c1n2CCCN
active: [1] 0.451 µM | [2] 0.296 µM | [3] 0.273 µM | [4] 0.1 µM | [5] 0.307 µM | [6] 0.457 µM | [7] 0.42 µM | [8] 0.313 µM | [20] 0.145 µM | [9] 251 nM | [11] 0.273 µM | [12] 0.453 µM | [13] 0.0541 µM | [15] 0.05 µM | [16] 0.458 µM | [17] 0.383 µM | [18] 0.0466 µM

Cc1c(C(=O)C/C(=N/NC(=O)CC#N)C(N)=O)[n+]([O-])c2ccccc2[n+]1[O-]
inactive: [1] > 100 µM | [2] > 100 µM | [3] 23.8 µM | [4] 42 µM | [5] > 100 µM | [6] 39.5 µM | [7] > 100 µM | [8] 20.5 µM | [20] 34.5 µM | [10] 35.6 µM | [12] 22.9 µM | [13] 32.7 µM | [14] 33.9 µM | [15] > 100 µM | [16] > 100 µM | [17] 40.6 µM | [18] 17.7 µM | [19] 35.7 µM

Nc1c(-c2nc3ccccc3[nH]2)sc(=S)n1-c1ccc(Cl)cc1
inactive: [1] 31 µM | [2] 23.5 µM | [3] 18.6 µM | [4] 19.8 µM | [5] 35.8 µM | [6] 21.8 µM | [7] 20.8 µM | [8] 28.6 µM | [20] 30.3 µM | [10] 31.1 µM | [12] 18.5 µM | [13] 20 µM | [14] 28.1 µM | [15] 23.8 µM | [16] 33.7 µM | [17] 26 µM | [18] 39.5 µM | [19] 23.7 µM

CC(=O)Nc1cccc(/N=N/N(C)C)c1
inactive: [1] > 100 µM | [2] > 100 µM | [3] > 100 µM | [4] > 100 µM | [5] > 100 µM | [6] > 100 µM | [7] > 100 µM | [8] > 100 µM | [9] > 100000 nM | [10] > 100 µM | [11] > 100 µM | [12] > 100 µM | [13] > 100 µM | [14] > 100 µM | [15] > 100 µM | [16] > 95.3 µM | [17] > 100 µM | [18] > 100 µM | [19] > 100 µM

OCC(O)COc1ccc(F)cc1 (stereo not given)
inactive: [1] > 100 µM | [2] > 100 µM | [3] > 100 µM | [4] > 100 µM | [5] > 100 µM | [6] > 100 µM | [7] > 100 µM | [8] > 100 µM | [20] > 100 µM | [10] > 100 µM | [12] > 100 µM | [13] > 100 µM | [15] > 100 µM | [16] > 100 µM | [17] > 100 µM | [18] > 100 µM | [19] > 100 µM

CC(=O)N(C)C=C1C(=O)N(C)C(=O)N(C)C1=O
inactive: [1] > 100 µM | [2] > 100 µM | [3] > 100 µM | [4] > 100 µM | [5] > 100 µM | [6] > 100 µM | [7] > 100 µM | [20] > 100 µM | [10] > 100 µM | [12] > 100 µM | [13] > 100 µM | [14] > 100 µM | [15] > 100 µM | [16] > 100 µM | [17] > 100 µM | [18] > 100 µM | [19] > 100 µM
